{"source": "PubChem BioAssay AID250", "about": "(DTP/NCI, 2004)", "test_system": "BDF1 mice, L1210 leukemia sc, survival T/C", "test": "NCI In Vivo Anticancer Drug Screen. Data for tumor model L1210 Leukemia (subcutaneous) in B6D2F1 (BDF1) mice", "settings": "endpoint: median survival time, higher = longer survival", "method_in_brief": "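Antitumor activity is assessed in mice with transplanted tumors by comparing the treated group (T) with the vehicle control group (C).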", "note": "Several values for one entry are separate records, joined by “and”; a condition that tells them apart may be missing. Equal entries are not always repeated. Inconclusive results and toxic doses are left out.", "data": [{"smiles": "N=c1ccn2c(n1)OC1C(O)C(CO)OC12", "note": "(stereo not given)", "values": [{"measurement": "T/C", "setting": "dose: 9.38 mg/kg/injection, schedule: Q03HX024 (sc), vehicle: water", "result": "190 % of control"}, {"measurement": "T/C", "setting": "dose: 18.75 mg/kg/injection, schedule: Q03HX024 (sc), vehicle: water", "result": "200 % of control"}, {"measurement": "T/C", "setting": "dose: 25.0 mg/kg/injection, schedule: Q01DX009 (sc), vehicle: water", "result": "203 % of control and 170 % of control"}, {"measurement": "T/C", "setting": "dose: 25.0 mg/kg/injection, schedule: Q## X009 (sc), vehicle: water", "result": "203 % of control and 172 % of control"}, {"measurement": "T/C", "setting": "dose: 37.5 mg/kg/injection, schedule: Q01DX008 (sc), vehicle: water", "result": "227 % of control and 228 % of control"}, {"measurement": "T/C", "setting": "dose: 37.5 mg/kg/injection, schedule: Q01DX009 (sc), vehicle: water", "result": "180 % of control"}, {"measurement": "T/C", "setting": "dose: 37.5 mg/kg/injection, schedule: Q03HX024 (sc), vehicle: water", "result": "205 % of control"}, {"measurement": "T/C", "setting": "dose: 50.0 mg/kg/injection, schedule: Q01DX009 (sc), vehicle: water", "result": "184 % of control [middle of 4 runs]"}, {"measurement": "T/C", "setting": "dose: 50.0 mg/kg/injection, schedule: Q## X009 (sc), vehicle: water", "result": "214 % of control and 188 % of control"}, {"measurement": "T/C", "setting": "dose: 65.0 mg/kg/injection, schedule: Q01DX009 (sc), vehicle: water", "result": "191 % of control"}, {"measurement": "T/C", "setting": "dose: 75.0 mg/kg/injection, schedule: Q01DX008 (sc), vehicle: water", "result": "228 % of control and 233 % of control"}, {"measurement": "T/C", "setting": "dose: 75.0 mg/kg/injection, schedule: Q01DX009 (oral), vehicle: water", "result": "180 % of control"}, {"measurement": "T/C", "setting": "dose: 75.0 mg/kg/injection, schedule: Q01DX009 (sc), vehicle: water", "result": "203 % of control and 190 % of control"}, {"measurement": "T/C", "setting": "dose: 75.0 mg/kg/injection, schedule: Q03HX024 (sc), vehicle: water", "result": "220 % of control"}, {"measurement": "T/C", "setting": "dose: 75.0 mg/kg/injection, schedule: Q## X009 (sc), vehicle: water", "result": "203 % of control"}, {"measurement": "T/C", "setting": "dose: 100.0 mg/kg/injection, schedule: Q01DX009 (ip), vehicle: saline", "result": "168 % of control and 172 % of control"}, {"measurement": "T/C", "setting": "dose: 100.0 mg/kg/injection, schedule: Q01DX009 (ip), vehicle: water", "result": "205 % of control"}, {"measurement": "T/C", "setting": "dose: 100.0 mg/kg/injection, schedule: Q01DX009 (sc), vehicle: water", "result": "206 % of control [middle of 4 runs]"}, {"measurement": "T/C", "setting": "dose: 100.0 mg/kg/injection, schedule: Q## X009 (sc), vehicle: water", "result": "222 % of control and 211 % of control"}, {"measurement": "T/C", "setting": "dose: 108.0 mg/kg/injection, schedule: Q01DX009 (sc), vehicle: water", "result": "183 % of control"}, {"measurement": "T/C", "setting": "dose: 108.0 mg/kg/injection, schedule: Q01DX014 (sc), vehicle: water", "result": "210 % of control"}, {"measurement": "T/C", "setting": "dose: 108.0 mg/kg/injection, schedule: Q01DX015 (sc), vehicle: water", "result": "194 % of control and 200 % of control"}, {"measurement": "T/C", "setting": "dose: 150.0 mg/kg/injection, schedule: Q01DX008 (sc), vehicle: water", "result": "247 % of control and 250 % of control"}, {"measurement": "T/C", "setting": "dose: 150.0 mg/kg/injection, schedule: Q01DX009 (oral), vehicle: water", "result": "175 % of control"}, {"measurement": "T/C", "setting": "dose: 150.0 mg/kg/injection, schedule: Q01DX009 (sc), vehicle: water", "result": "233 % of control and 200 % of control"}, {"measurement": "T/C", "setting": "dose: 150.0 mg/kg/injection, schedule: Q03HX008 (sc), vehicle: water", "result": "150 % of control"}, {"measurement": "T/C", "setting": "dose: 150.0 mg/kg/injection, schedule: Q03HX024 (sc), vehicle: water", "result": "210 % of control"}, {"measurement": "T/C", "setting": "dose: 150.0 mg/kg/injection, schedule: Q## X009 (sc), vehicle: water", "result": "233 % of control"}, {"measurement": "T/C", "setting": "dose: 180.0 mg/kg/injection, schedule: Q01DX009 (sc), vehicle: water", "result": "207 % of control"}, {"measurement": "T/C", "setting": "dose: 180.0 mg/kg/injection, schedule: Q01DX014 (sc), vehicle: water", "result": "253 % of control"}, {"measurement": "T/C", "setting": "dose: 180.0 mg/kg/injection, schedule: Q01DX015 (sc), vehicle: water", "result": "222 % of control and 223 % of control"}, {"measurement": "T/C", "setting": "dose: 200.0 mg/kg/injection, schedule: Q01DX009 (ip), vehicle: saline", "result": "180 % of control and 190 % of control"}, {"measurement": "T/C", "setting": "dose: 200.0 mg/kg/injection, schedule: Q01DX009 (ip), vehicle: water", "result": "227 % of control"}, {"measurement": "T/C", "setting": "dose: 200.0 mg/kg/injection, schedule: Q01DX009 (sc), vehicle: water", "result": "236 % of control [middle of 4 runs]"}, {"measurement": "T/C", "setting": "dose: 200.0 mg/kg/injection, schedule: Q## X009 (sc), vehicle: water", "result": "247 % of control and 238 % of control"}, {"measurement": "T/C", "setting": "dose: 300.0 mg/kg/injection, schedule: Q01DX001 (sc), vehicle: water", "result": "120 % of control"}, {"measurement": "T/C", "setting": "dose: 300.0 mg/kg/injection, schedule: Q01DX008 (sc), vehicle: water", "result": "235 % of control and 238 % of control"}, {"measurement": "T/C", "setting": "dose: 300.0 mg/kg/injection, schedule: Q01DX009 (ip), vehicle: saline", "result": "202 % of control and 209 % of control"}, {"measurement": "T/C", "setting": "dose: 300.0 mg/kg/injection, schedule: Q01DX009 (oral), vehicle: water", "result": "195 % of control"}, {"measurement": "T/C", "setting": "dose: 300.0 mg/kg/injection, schedule: Q01DX009 (sc), vehicle: water", "result": "180 % of control and 183 % of control (2×)"}, {"measurement": "T/C", "setting": "dose: 300.0 mg/kg/injection, schedule: Q01DX014 (sc), vehicle: water", "result": "239 % of control"}, {"measurement": "T/C", "setting": "dose: 300.0 mg/kg/injection, schedule: Q01DX015 (sc), vehicle: water", "result": "227 % of control and 231 % of control"}, {"measurement": "T/C", "setting": "dose: 300.0 mg/kg/injection, schedule: Q03HX008 (sc), vehicle: water", "result": "155 % of control"}, {"measurement": "T/C", "setting": "dose: 300.0 mg/kg/injection, schedule: Q04DX003 (sc), vehicle: water", "result": "150 % of control"}, {"measurement": "T/C", "setting": "dose: 300.0 mg/kg/injection, schedule: Q## X009 (sc), vehicle: water", "result": "218 % of control"}, {"measurement": "T/C", "setting": "dose: 400.0 mg/kg/injection, schedule: Q01DX009 (ip), vehicle: water", "result": "177 % of control"}, {"measurement": "T/C", "setting": "dose: 400.0 mg/kg/injection, schedule: Q01DX009 (sc), vehicle: water", "result": "200 % of control and 209 % of control and 304 % of control"}, {"measurement": "T/C", "setting": "dose: 500.0 mg/kg/injection, schedule: Q01DX014 (sc), vehicle: water", "result": "163 % of control"}, {"measurement": "T/C", "setting": "dose: 500.0 mg/kg/injection, schedule: Q01DX015 (sc), vehicle: water", "result": "211 % of control and 233 % of control"}, {"measurement": "T/C", "setting": "dose: 600.0 mg/kg/injection, schedule: Q01DX008 (sc), vehicle: water", "result": "172 % of control and 180 % of control"}, {"measurement": "T/C", "setting": "dose: 600.0 mg/kg/injection, schedule: Q01DX009 (oral), vehicle: water", "result": "155 % of control"}, {"measurement": "T/C", "setting": "dose: 600.0 mg/kg/injection, schedule: Q04DX003 (sc), vehicle: water", "result": "170 % of control"}, {"measurement": "T/C", "setting": "dose: 800.0 mg/kg/injection, schedule: Q01DX009 (ip), vehicle: water", "result": "122 % of control"}, {"measurement": "T/C", "setting": "dose: 800.0 mg/kg/injection, schedule: Q01DX009 (sc), vehicle: water", "result": "88 % of control"}, {"measurement": "T/C", "setting": "dose: 800.0 mg/kg/injection, schedule: Q## X009 (sc), vehicle: water", "result": "88 % of control"}, {"measurement": "T/C", "setting": "dose: 1200.0 mg/kg/injection, schedule: Q01DX009 (oral), vehicle: water", "result": "100 % of control"}, {"measurement": "T/C", "setting": "dose: 1200.0 mg/kg/injection, schedule: Q04DX003 (sc), vehicle: water", "result": "195 % of control"}, {"measurement": "T/C", "setting": "dose: 1600.0 mg/kg/injection, schedule: Q01DX001 (sc), vehicle: water", "result": "150 % of control and 157 % of control"}, {"measurement": "T/C", "setting": "dose: 2400.0 mg/kg/injection, schedule: Q01DX001 (sc), vehicle: water", "result": "150 % of control"}, {"measurement": "T/C", "setting": "dose: 2400.0 mg/kg/injection, schedule: Q03HX008 (sc), vehicle: water", "result": "90 % of control"}]}]}
